Where “and” joins values, the source holds several entries; their conditions need not be identical. Equal values may be shown once.
Key:
[1] = tested on: SNAT1 and SNAT2; assay: FMP assay: inhibition of glutamine-induced membrane depolarisation in amino acid depleted HCC1806 cells; assay type: cell-based, human; conditions: FMP assay, top hit compounds from the HTS, 9-point dose-response, n = 6
Method: (§1) The FLIPR Membrane Potential Blue Explorer Kit (Molecular Devices) was used to characterise inhibitors and to optimise a high-throughput compound screen. Cells were seeded at approximately 60,000 cells/well on a 96-well plate and allowed to attach and grow overnight in a cell incubator. […] Cells were then washed once with mHBSS and incubated with 50 µl of the mHBSS-resuspended FMP assay dye and 50 µl of mHBSS (with or without inhibitors) and incubated at room temperature for 30 min. The plate was then placed in an EnSpire Multimode plate reader (PerkinElmer) and four sequential measurements of fluorescence were recorded as a baseline reference. Immediately after the baseline measurements were taken, 25 µl of 5 mM glutamine dissolved in mHBSS was injected into each well and the plate was shaken orbitally for 5 s before a series of consecutive fluorescence measurements were taken. The excitation wavelength was set to 530 nm and the emission was detected at 565 nm. The Δ fluorescent signal reported in the figures was taken 30 s after substrate addition. After the assay was complete, the liquid content of the plate was carefully removed, and the cell monolayer inspected to ensure it remained intact throughout the course of the assay.
IC50 were calculated using equation y=ymax(1−x/x+IC50)

[2] = tested on: SNAT1/2; assay: FMP assay: depolarisation by amino acid substrates in amino acid depleted HCC1806 cells; assay type: cell-based, human; conditions: for FMP fluorescence reading: amino acid 1 mM final; for FMP response as substrate: 1 mM
Method: as §1, with “The Δ fluorescent signal reported in the figures was taken 30 s after substrate addition.” left out

IC50 [1] [µM] | SMILES | FMP fluorescence reading ([2]; t=0 s) | FMP fluorescence reading ([2]; t=15 s) | FMP fluorescence reading ([2]; t=30 s) | FMP fluorescence reading ([2]; t=45 s) | FMP fluorescence reading ([2]; t=60 s) | FMP fluorescence reading ([2]; t=75 s) | FMP fluorescence reading ([2]; t=90 s) | FMP fluorescence reading ([2]; t=105 s) | FMP fluorescence reading ([2]; t=120 s) | FMP fluorescence reading ([2]; t=135 s) | FMP fluorescence reading ([2]; t=-15 s) | FMP fluorescence reading ([2]; t=-30 s, replicates 1-3) | FMP response as substrate [2]
18.4 | Cc1sc2nc(CN3CCC(C)CC3)nc(N3CCC(C)CC3)c2c1C [Compound 56_C] |  |  |  |  |  |  |  |  |  |  |  |  | 
114 | COC(=O)c1ccc(C(=O)N2CCc3sccc3C2c2ccccc2)s1 (stereo not drawn) [Compound 57_C] |  |  |  |  |  |  |  |  |  |  |  |  | 
 | N[C@@H](CCC(=O)O)C(=O)O [Glutamate] | 60032 and 51875 and 43598 | 69207 and 54669 and 51909 | 69328 and 57256 and 51957 | 69976 and 58306 and 52382 | 70448 and 59203 and 52416 | 70747 and 59679 and 52622 | 70473 and 59687 and 53012 | 70925 and 60367 and 52735 | 71220 and 60249 and 53084 | 71259 and 60330 and 52832 | 59967 and 51788 and 43666 | 60239 and 51751 and 43455 | 
 | NCC(=O)O [Glycine] | 44899 and 49024 and 38114 | 85173 and 99097 and 84032 | 91215 and 103676 and 87874 | 94947 and 105684 and 90110 | 97113 and 106636 and 90762 | 98961 and 107619 and 91458 | 100150 and 108044 and 90972 | 99878 and 107571 and 90946 | 99987 and 106851 and 90990 | 99765 and 106361 and 89148 | 44724 and 48839 and 38339 | 44368 and 48981 and 38101 | strongest response
 | CC(C)C[C@H](N)C(=O)O [Leucine] | 61522 and 51455 and 48802 | 88098 and 66521 and 74458 | 89784 and 72558 and 75976 | 91395 and 75844 and 77135 | 92447 and 78186 and 77607 | 93485 and 79454 and 77906 | 93344 and 79903 and 78344 | 93716 and 80571 and 78223 | 93656 and 80831 and 77995 | 93514 and 80690 and 77322 | 61387 and 51586 and 49166 | 61314 and 51367 and 48860 | weak signal
 | N[C@@H](Cc1ccccc1)C(=O)O [Phenylalanine] | 56591 and 55422 and 43224 | 73580 and 72052 and 58378 | 74725 and 73471 and 59296 | 75492 and 73818 and 59645 | 76233 and 74445 and 59921 | 76773 and 74969 and 60608 | 77388 and 75496 and 60901 | 77493 and 75802 and 61169 | 77831 and 75902 and 61002 | 78078 and 75738 and 60891 | 56780 and 55712 and 43156 | 56746 and 55392 and 43055 | weak signal
 | O=C(O)[C@@H]1CCCN1 [Proline] | 59025 and 53021 and 43095 | 104996 and 86952 and 88962 | 110697 and 98531 and 91551 | 113693 and 105110 and 94295 | 116376 and 109453 and 95282 | 118353 and 112938 and 95197 | 118882 and 114320 and 95021 | 119266 and 115087 and 95127 | 119471 and 115780 and 93913 | 119506 and 115226 and 93809 | 58886 and 52711 and 43194 | 59126 and 52759 and 43032 | strongest response

From paper PMC9532951, “Identification and characterization of a novel SNAT2 (SLC38A2) inhibitor reveals synergy with glucose transport inhibition in cancer cells” (Frontiers in Pharmacology, 2022)
